Laboratory results reported in patent US20050113318A1, “Combination of dehydroepiandrosterone or dehydroepiandrosterone-sulfate with a beta-agonist bronchodilator for treatment of asthma or chronic obstructive pulmonary disease” (priority 2003, published 2005).
Values joined by “and” are separate entries in the source; they are usually repeats but may differ in a detail not shown here. Identical values can stand only once.

Tests used:
Format in all cases: physicochemical
[1] = Fine particle fraction, single-dose Acu-Breathe inhaler into Andersen impactor; settings: 30 L/min, IDL data, FIG. 1; result set to zero
Description: These blisters are actuated into the Andersen 8-stage cascade impactor at flow rates ranging from 30 to 75 L/min with a glass twin-impinger throat. Stages 1-5 of the Andersen impactor are rinsed together to obtain an estimate of the fine particle fraction. Pooling the drug collected from multiple stages into one assay make the method much more sensitive. […] Using a carrier with a larger particle size typically improves the aerosol properties of micronized drug substances.
Approximately 25 mg of this powder is filled and sealed in foil blisters and aerosolized using the single-dose device at 60 L/min. The aerosol results for this preliminary powder blend are satisfactory for a respiratory drug delivery system. […] This diameter is smaller than the median diameter measured for micronized DHEA-S.dihydrate by laser diffraction. Irregularly shaped particles can behave aerodynamically as smaller particles since their longest dimension tends to align with the air flow field. Therefore, it is common to see a difference between the two methods. Diffraction measurements are a quality control test for the input material while cascade impaction is a quality control test for the finished product.

[2] = Emitted dose studies with dry powder inhalers; settings: for Emitted Dose: single runs
Description: DHEA-S powder was collected in Nephele tubes and assayed by HPLC. Triplicate experiments were performed at each airflow rate for each of the three dry powder inhalers tested (Rotahaler, Diskhaler and IDL's DPI devices). A Nephele tube was fitted at one end with a glass filter (Gelman Sciences, Type A/E, […]), which in turn was connected to the airflow line to collect the emitted dose of the drug from the respective dry powder inhaler being tested. A silicone adapter, with an opening to receive the mouthpiece of the respective dry powder inhaler being tested at the other end of the Nephele tube was secured. A desired airflow, of 30, 60, or 90 L/min, was achieved through the Nephele tube. Each dry powder inhaler's mouthpiece was inserted then into the silicone rubber adapter, and the airflow was continued for about four s after which the tube was removed and an end-cap screwed onto the end of each tube. The end-cap of the tube not containing the filter was removed and 10 ml of an HPLC grade water-acetonitrile solution (1:1) added to the tube, the end-cap reattached, and the tube shaken for 1-2 minutes. The end-cap then was removed from the tube and the solution was transferred to a 10 ml plastic syringe fitted with a filter (Cameo 13N Syringe Filter, Nylon, 0.22 μm). An aliquot of the solution was directly filtered into an HPLC vial for later drug assay via HPLC. […] When the micronized DHEA-S (only vial B used), was weighed for placement into the gelatin capsule or blister, there appeared to be a few aggregates of the micronized powder. […] Table 2 summarizes the results for the Rotahaler experiments at 3 different flow rates, for the Diskhaler experiments at 3 different flow rates, and of the multi-dose experiments at 3 different flow rates.

[3] = HPLC analysis of drug degradation during jet milling; settings: single-pass and double-pass vs unmilled standard, HPLC peak area
Description: Two vials (A; single-pass; 150 mg) and (B double-pass; 600 mg) of the micronized drug were available for determining drug degradation during jet milling micronization. […] The chromatographic peak area for the HPLC assay of the unmilled drug standard solution (10 mg/ml) gave a value of 23,427. […] The chromatographic peak areas for vials A and B were 11,979 and 11,677, respectively.

[4] = Diskhaler (2nd study), 87.8 L/min
[5] = IDL Multi-Dose (2nd study), 87.8 L/min

Structure (SMILES): C[C@]12CC[C@H](OS(=O)(=O)[O-])CC1=CC[C@@H]1[C@@H]2CC[C@]2(C)C(=O)CC[C@@H]12.[Na+] [Anhydrous DHEA-S]
- fine particle fraction [1]: no detectable mass entered the impactor
- Emitted Dose, Average [2, 4]: 59.1%
- Emitted Dose [2, 4]: 57.9% and 59.9% and 59.5%
- Emitted Dose, Average ([2]; Diskhaler, 30 L/min): 58.6%
- Emitted Dose ([2]; Diskhaler, 30 L/min): 53.8% and 53.4% and 68.7%
- Emitted Dose, Average ([2]; Diskhaler, 60 L/min): 68.2%
- Emitted Dose ([2]; Diskhaler, 60 L/min): 63.4% and 38.9% and 58.0%
- Emitted Dose, Average ([2]; Diskhaler, 87.8 L/min): 51.3%
- Emitted Dose ([2]; Diskhaler, 87.8 L/min): 65.7% and 41.6% and 46.5%
- Emitted Dose, Average [2, 5]: 84.8%
- Emitted Dose [2, 5]: 85.7% and 84.6% and 84.0%
- Emitted Dose, Average ([2]; IDL Multi-Dose, 30 L/min): 85.4%
- Emitted Dose ([2]; IDL Multi-Dose, 30 L/min): 78.9% and 88.2% and 89.2%
- Emitted Dose, Average ([2]; IDL Multi-Dose, 60 L/min): 84.0%
- Emitted Dose ([2]; IDL Multi-Dose, 60 L/min): 78.8% and 83.7% and 89.6%
- Emitted Dose, Average ([2]; IDL Multi-Dose, 87.8 L/min): 72.6%
- Emitted Dose ([2]; IDL Multi-Dose, 87.8 L/min): 71.3% and 79.0% and 67.4%
- Emitted Dose, Average ([2]; Rotahaler (2nd study), 87.8 L/min): 31.5%
- Emitted Dose, Average ([2]; Rotahaler, 30 L/min): 34.7%
- Emitted Dose, Average ([2]; Rotahaler, 60 L/min): 57.3%
- Emitted Dose ([2]; Rotahaler, 60 L/min): 58.1% and 68.2% and 45.7%
- Emitted Dose, Average ([2]; Rotahaler, 87.8 L/min): 69.7%
- Emitted Dose ([2]; Rotahaler, 87.8 L/min): 73.2% and 67.1% and 68.7%
- degradation of the drug during jet milling micronization [3]: no detectable degradation
